Assay results taken from US8198285B2, “Pyrazine derivatives” (Astrazeneca AB, priority 2010, dated 2012).
Where a name gives a salt, the structure may show the parent alone.

Columns and labels:
[1] = system: human adipose-derived stem cells (hADSC); test: Osteogenic differentiation and assessment of mineralisation in vitro (Alizarin Red S); assay type: cell-based; conditions: 300 nM; 24 days of cell culture; relative to vehicle control (0.2% DMSO)
Protocol: (§1) For in vitro osteogenesis, human adipose-derived stem cells (hADSC) (Invitrogen, UK; catalogue number R7788-115) were seeded into 12-well plates at a density of 5000 cells/cm^2 and were cultured in a basal media of phenol red-free Dulbecco's Modified Eagles Medium (DMEM; Sigma-Aldrich, UK; catalogue number D1145) supplemented with 5% fetal bovine serum (FBS, Gibco, UK; catalogue number 10270) and 2 mM GlutaMax® (Gibco; catalogue number 35050). […] The formation of mineralized bone nodules was assessed during the time-course using Alizarin Red S staining. […] The amount of mineralisation was quantified through the extraction of the Alizarin Red S stain from bone nodules using a cetylpyridinium chloride extraction method, previously described (Gregory et al., Analytical Biochemistry, 2004, 329: 77-84; Hwang et al., Stem Cells and Development 17: 963-970, 2008). […] Following incubation, 200 μl aliquots were transferred to 96-well format and the absorbance at 550 nm was determined using a microplate spectrophotometer (SpectraMax Plus, Molecular Devices, USA). Data were expressed as mean absorbance at 550 nm±Standard error of mean (SEM). […] Data are shown as mean absorbance at 550 nm and analysed using one-way ANOVA followed by Tukey's multiple comparison post hoc test: n=9; ***, P<0.001. […]

female CRL:CD rats = test: Bone densitometry (pQCT) of right femur in rats; assay type: in vivo, rat; conditions: oral once a day, 14 consecutive days, 15 mg/kg
Protocol: as §1

PIM3 = PIM3 (Homo sapiens, UniProt Q86V86); test: Inhibitory activity against PIM3; assay type: biochemical

COCCCNCCCc1ccc(-c2cnc(N)c(C(=O)Nc3cccnc3)n2)cc1 [Example 1, 3-Amino-6-(4-{3-[(3-methoxypropyl)amino]propyl}phenyl)-N-pyridin-3-ylpyrazine-2-carboxamide tri-hydrochloride]
Alizarin red S staining of mineralised bone nodules [1]: significantly induced progenitor cell commitment and osteoblast differentiation | Increase in right femur metaphysis total BMD compared with vehicle treated rats (female CRL:CD rats): 6.6% | Total BMD in femur (mean±SEM) (female CRL:CD rats): 814.41 ± 15 mg/mL | Inhibitory activity against PIM3 (PIM3): inhibitory activity
